Assay results as given in US20090203737A1, “Pyrrole Derivatives as Positive Allosteric Modulators of Metabotropic Receptors” (priority 2005, published 2009).

What was measured:
[1] = molecular target: T1, rat mGluR5 receptor (Rattus norvegicus, UniProt P31424); assay: mGluR5 assay on HEK-expressing rat mGluR5 (fluorescent cell based Ca2+ mobilization assay); conditions: HEK-293 cells stably expressing rat mGluR5; no co-addition of glutamate; mean of at least three independent experiments in duplicate; read-out: Ca++ Flux (mean EC50)
T1 construct: expressed in transfected cells
Protocol: Positive functional expression of HEK-293 cells stably expressing rat mGluR5 receptor was determined by measuring intracellular Ca^2+ changes using a Fluorometric Imaging Plate Reader (FLIPR, Molecular Devices, Sunnyvale, Calif.) in response to glutamate or selective known mGluR5 agonists and antagonists. Rat mGluR5 RT-PCR products in HEK-293 cells were sequenced and found 100% identical to rat mGluR5 Genbank reference sequence (NM_017012). HEK-293 cells expressing rmGluR5 were maintained in media containing DMEM, dialyzed Fetal Bovine Serum (10%), Glutamax™ (2 mM), Penicillin (100 units/ml), Streptomycin (100 μg/ml), Geneticin (100 μg/ml) and Hygromycin-B (40 μg/ml) at 37° C./5% CO2.
After one day of incubation, cells were washed with assay buffer containing: 142 mM NaCl, 6 mM KCl, 1 mM […], 1 mM CaCl2, 20 mM HEPES, 1 g/L glucose, 0.125 mM sulfinpyrazone, pH 7.4. After 60 min of loading with 4 uM Fluo-4 (TefLabs, Austin, Tex.), the cells were washed three times with 50 μl of PBS Buffer and resuspended in 45 μl of assay Buffer. The plates were then transferred to a Fluorometric Imaging Plate Reader (FLIPR, Molecular Devices, Sunnyvale, Calif.) for the assessment of intracellular calcium flux. After monitoring the baseline fluorescence for 10 seconds, increasing concentrations of representative compound (from 0.01 to 60 μM) of the present invention diluted in Assay Buffer (15 μl of 4× dilutions) was added to the cell. The final DMSO concentration in the assay was 0.3%. In each experiment, fluorescence was then monitored as a function of time for 3 minutes and the data analyzed using Microsoft Excel and GraphPad Prism. Each data point was also measured two times.
Under these experimental conditions, this HEK-rat mGluR5 cell line is able to directly detect positive allosteric modulators without the need of co-addition of glutamate or mGluR5 agonist.
The concentration-response curves of representative compounds of the present invention were generated using the Prism GraphPad software (Graph Pad Inc, San Diego, USA). The curves were fitted to a four-parameter logistic equation:
(Y=Bottom+(Top−Bottom)/(1+10̂((LogEC50−X)*Hill Slope)
allowing determination of EC50 values.
The Table 1 below represents the mean EC50 obtained from at least three independent experiments of selected molecules performed in duplicate.

T1 sequence (P31424 21-1171 isoform P31424-2 limits assumed): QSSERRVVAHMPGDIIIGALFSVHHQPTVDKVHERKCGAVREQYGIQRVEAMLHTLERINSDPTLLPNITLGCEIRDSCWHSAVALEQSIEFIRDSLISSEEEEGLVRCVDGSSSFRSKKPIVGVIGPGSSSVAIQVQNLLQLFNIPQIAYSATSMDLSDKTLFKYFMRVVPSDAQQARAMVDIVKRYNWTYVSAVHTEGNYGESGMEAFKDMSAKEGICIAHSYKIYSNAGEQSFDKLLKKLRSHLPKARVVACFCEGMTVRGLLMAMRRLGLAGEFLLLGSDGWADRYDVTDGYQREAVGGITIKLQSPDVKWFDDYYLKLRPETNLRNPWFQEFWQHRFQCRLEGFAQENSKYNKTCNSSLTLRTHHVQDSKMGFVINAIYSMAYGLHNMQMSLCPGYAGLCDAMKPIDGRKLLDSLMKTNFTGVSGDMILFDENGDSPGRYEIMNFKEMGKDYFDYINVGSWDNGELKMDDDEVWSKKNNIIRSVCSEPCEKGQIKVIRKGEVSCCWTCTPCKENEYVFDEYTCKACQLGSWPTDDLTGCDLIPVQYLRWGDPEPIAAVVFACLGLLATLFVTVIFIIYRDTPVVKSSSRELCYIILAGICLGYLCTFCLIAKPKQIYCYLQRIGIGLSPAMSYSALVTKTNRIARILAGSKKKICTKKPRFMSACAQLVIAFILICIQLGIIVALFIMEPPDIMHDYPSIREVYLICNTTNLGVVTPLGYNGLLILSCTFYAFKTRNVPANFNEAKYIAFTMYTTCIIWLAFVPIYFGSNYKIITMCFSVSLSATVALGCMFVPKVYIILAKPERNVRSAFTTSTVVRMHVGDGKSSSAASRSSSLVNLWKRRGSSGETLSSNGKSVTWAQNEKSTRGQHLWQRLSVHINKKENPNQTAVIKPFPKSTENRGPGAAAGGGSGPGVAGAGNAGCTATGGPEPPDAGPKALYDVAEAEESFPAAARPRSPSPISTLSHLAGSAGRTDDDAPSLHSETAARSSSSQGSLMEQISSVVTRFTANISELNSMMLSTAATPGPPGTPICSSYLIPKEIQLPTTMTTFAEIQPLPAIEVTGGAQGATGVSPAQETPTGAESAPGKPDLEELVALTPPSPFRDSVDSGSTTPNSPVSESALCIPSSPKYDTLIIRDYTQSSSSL

EC50 [1] [nM]	melting point [°C]	SMILES
1000 to 10000	131 to 132	O=C(c1ccc(F)nc1)N1CCC[C@H](c2nc(-c3ccc[nH]3)no2)C1 [Example 4, (6-Fluoro-pyridin-3-yl)-{(S)-3-[3-(1H-pyrrol-2-yl)-[1,2,4]oxadiazol-5-yl]-piperidin 1-yl}-methanone]
< 1000	177	O=C(c1ccc(F)c(F)c1)N1CCCC(c2noc(-c3ccc[nH]3)n2)C1 (stereo not shown) [Example 5, (3,4-Difluoro-phenyl)-{3-[5-(1H-pyrrol-2-yl)-[1,2,4]oxadiazol-3-yl]-piperidin-1-yl}-methanone]
< 1000	151	O=C(c1ccc(F)cc1F)N1CCCC(c2noc(-c3ccc[nH]3)n2)C1 (stereo not shown) [Example 6, (2,4-Difluoro-phenyl)-{3-[5-(1H-pyrrol-2-yl)-[1,2,4]oxadiazol-3-yl]-piperidin-1-yl}-methanone]
< 1000	158	O=C(c1ccc(F)cc1)N1CCCC(c2noc(-c3ccc[nH]3)n2)C1 (stereo not shown) [Example 7, (4-Fluoro-phenyl)-{3-[5-(1H-pyrrol-2-yl)-[1,2,4]oxadiazol-3-yl]-piperidin-1-yl}-methanone]
1000 to 10000	143	O=C(c1ccc(F)nc1)N1CCCC(c2noc(-c3ccc[nH]3)n2)C1 (stereo not shown) [Example 8, (6-Fluoro-pyridin-3-yl)-{3-[5-(1H-pyrrol-2-yl)-[1,2,4]oxadiazol-3-yl]-piperidin-1-yl}-methanone]
1000 to 10000	203	Cc1cc(F)ccc1C(=O)N1CCCC(c2noc(-c3ccc[nH]3)n2)C1 (stereo not shown) [Example 9, (4-Fluoro-2-methyl-phenyl)-{3-[5-(1H-pyrrol-2-yl)-[1,2,4]oxadiazol-3-yl]-piperidin-1-yl}-methanone]
< 1000	168	O=C(c1ccc(F)c(F)c1)N1CCC[C@H](c2noc(-c3ccc[nH]3)n2)C1 [Example 10, (3,4-Difluoro-phenyl)-{(S)-3-[5-(1H-pyrrol-2-yl)-[1,2,4]oxadiazol-3-yl]-piperidin-1-yl}-methanone]
1000 to 10000	199 to 201	O=C(c1ccc(F)cc1)N1CCCC(c2noc(-c3cc4ccccc4[nH]3)n2)C1 (stereo not shown) [Example 11, (4-Fluoro-phenyl)-{3-[5-(1H-indol-2-yl)-[1,2,4]oxadiazol-3-yl]-piperidin-1-yl}-methanone]
> 10000	93 to 94	O=C(c1ccc(F)c(F)c1)N1CCC[C@H](c2nc(-c3cc4ccccc4[nH]3)no2)C1 [Example 15, (3,4-Difluoro-phenyl)-{(S)-3-[3-(1H-indol-2-yl)-[1,2,4]oxadiazol-5-yl]-piperidin-1-yl}-methanone]
1000 to 10000	148.5 to 148.9	O=C(c1ccc(F)c(F)c1)N1CCCC(c2noc(-c3ncc[nH]3)n2)C1 (stereo not shown) [Example 18, (3,4-Difluoro-phenyl)-{3-[5-(1H-imidazol-2-yl)-[1,2,4]oxadiazol-3-yl]-piperidin-1-yl}-methanone]
1000 to 10000	163 to 164	Cc1oncc1C(=O)N1CCC[C@H](c2nc(-c3cc4ccccc4[nH]3)no2)C1 [Example 19, {(S)-3-[3-(1H-Indol-2-yl)-[1,2,4]oxadiazol-5-yl]-piperidin-1-yl}-(5-methyl-isoxazol-4-yl)-methanone]
> 10000	125 to 127	Cc1oncc1C(=O)N1CCC[C@H](c2nc(-c3ccc[nH]3)no2)C1 [Example 20, (5-Methyl-isoxazol-4-yl)-{(S)-3-[3-(1H-pyrrol-2-yl)-[1,2,4]oxadiazol-5-yl]-piperidin-1-yl}-methanone]
< 1000	–	O=C(c1ccc(F)cc1)N1CCC[C@H](n2nnc(-c3ccc[nH]3)n2)C1 [Example 54, (4-Fluoro-phenyl)-{(S)-3-[5-(1H-pyrrol-2-yl)-tetrazol-2-yl]-piperidin-1-yl}-methanone]
1000 to 10000	–	O=C(c1ccc(F)cc1)N1CCC[C@H](c2noc(-c3nc(C(F)(F)F)c[nH]3)n2)C1 [Example 55, (4-Fluoro-phenyl)-{(S)-3-[5-(4-trifluoromethyl-1H-imidazol-2-yl)-[1,2,4]oxadiazol-3-yl]-piperidin-1-yl}-methanone]
1000 to 10000	–	O=C(c1ccc(F)cc1)N1CCC(c2nc(-c3ccc[nH]3)no2)C1 (stereo not shown) [Example 57, (4-Fluoro-phenyl)-{3-[3-(1H-pyrrol-2-yl)-[1,2,4]oxadiazol-5-yl]-pyrrolidin-1-yl}-methanone]
< 1000	–	Cc1c[nH]c(-c2nc([C@H]3CCCN(C(=O)c4ccncc4F)C3)no2)c1 [Example 58, (3-Fluoro-pyridin-4-yl)-{(S)-3-[5-(4-methyl-1H-pyrrol-2-yl)-[1,2,4]oxadiazol-3-yl]-piperidin-1-yl}-methanone]
< 1000	–	O=C(c1ccnc(F)c1)N1CCC[C@H](c2noc(-c3cc(F)c[nH]3)n2)C1 [Example 60, (2-Fluoro-pyridin-4-yl)-{(s)-3-[5-(4-fluoro-1H-pyrrol-2-yl)-[1,2,4]oxadiazol-3-yl]-piperidin-1-yl}-methanone]
1000 to 10000	–	O=C(c1ccc(F)nc1)N1CCC[C@H](c2noc(-c3cc(F)c[nH]3)n2)C1 [Example 64, (6-Fluoro-pyridin-3-yl)-{(S)-3-[5-(4-fluoro-1H-pyrrol-2-yl)-[1,2,4]oxadiazol-3-yl]-piperidin-1-yl}-methanone]
1000 to 10000	–	O=C(c1ccc(F)nc1)N1CCC[C@H](c2nc(-c3cc(Cl)c[nH]3)no2)C1 [Example 65, {(S)-3-[3-(4-Chloro-1H-pyrrol-2-yl)-[1,2,4]oxadiazol-5-yl]-piperidin-1-yl}-(6-fluoro-pyridin-3-yl)-methanone]
1000 to 10000	–	O=C(c1ccnc(F)c1)N1CCC[C@H](c2nc(-c3cc(Cl)c[nH]3)no2)C1 [Example 66, {(S)-3-[3-(4-Chloro-1H-pyrrol-2-yl)-[1,2,4]oxadiazol-5-yl]-piperidin-1-yl}-(2-fluoro-pyridin-4-yl)-methanone]
1000 to 10000	–	O=C(c1ccncc1F)N1CCC[C@H](c2nc(-c3cc(Cl)c[nH]3)no2)C1 [Example 67, {(S)-3-[3-(4-Chloro-1H-pyrrol-2-yl)-[1,2,4]oxadiazol-5-yl]-piperidin-1-yl}-(3-fluoro-pyridin-4-yl)-methanone]
1000 to 10000	–	Cc1oncc1C(=O)N1CCC[C@H](c2nc(-c3cc(Cl)c[nH]3)no2)C1 [Example 68, {(S)-3-[3-(4-Chloro-1H-pyrrol-2-yl)-[1,2,4]oxadiazol-5-yl]-piperidin-1-yl}-(5-methyl-isoxazol-4-yl)-methanone]
1000 to 10000	–	O=C(c1ccncc1F)N1CCC[C@H](c2nc(-c3cc(Br)c[nH]3)no2)C1 [Example 69, {(S)-3-[3-(4-Bromo-1h-pyrrol-2-yl)-[1,2,4]oxadiazol-5-yl]-piperidin-1-yl}-(3-fluoro-pyridin-4-yl)-methanone]
1000 to 10000	–	O=C(c1ccncc1F)N1CCC[C@H](c2nc(-c3cc(F)c[nH]3)no2)C1 [Example 70, (3-Fluoro-pyridin-4-yl)-{(S)-3-[3-(4-fluoro-1H-pyrrol-2-yl)-[1,2,4]oxadiazol-5-yl]-piperidin-1-yl}-methanone]
1000 to 10000	–	Cc1c[nH]c(-c2noc([C@H]3CCCN(C(=O)c4ccncc4F)C3)n2)c1 [Example 71, (3-Fluoro-pyridin-4-yl)-{(S)-3-[3-(4-methyl-1H-pyrrol-2-yl)-[1,2,4]oxadiazol-5-Yl]-piperidin-1-yl}-methanone]
1000 to 10000	–	O=C(c1ccncc1F)N1CCC[C@H](c2noc(-c3cc(C(F)(F)F)c[nH]3)n2)C1 [Example 77, (3-Fluoro-pyridin-4-yl)-{(S)-3-[5-(4-trifluoromethyl-1H-pyrrol-2-yl)[1,2,4]oxadiazol-3-yl]-piperidin-1-yl}-methanone]
–	165.7	O=C(c1ccc(F)nc1)N1CCC[C@H](c2noc(-c3cc(C(F)(F)F)c[nH]3)n2)C1 [Example 78, (6-Fluoro-pyridin-3-yl)-{(S)-3-[5-(4-trifluoromethyl-1H-pyrrol-2-yl)-[1,2,4]oxadiazol-3-yl]-piperidin-1-yl}-methanone]
1000 to 10000	–	Cc1c[nH]c(-c2noc([C@H]3CCCN(C(=O)c4ccc(F)c(F)c4)C3)n2)n1 [Example 79, (3,4-Difluoro-phenyl)-{(S)-3-[3-(4-methyl-1H-imidazol-2-yl)-[1,2,4]oxadiazol-5-yl]-piperidin-1-yl}-methanone]
